# Entries after “also recorded” stand apart in the source; their conditions may differ.
# B1: hFGF21: full-length recombinant human FGF21 from Cell Science, given i.p. alone or with BR103354 (protein, UniProt Q9NSA1 29-209, looked up)
# Fibroblast growth factor 21: HPIPDSSPLLQFGGQVRQRYLYTDDAQQTEAHLEIREDGTVGGAADQSPESLLQLKALKPGVIQILGVKTSRFLCQRPDGALYGSLHFDPEACSFRELLLEDGYNVYQSEAHGLPLHLPGNKSPHRDPAPRGPARFLPLPGLPPALPEPPGILAPQPPDVGSSDPLSMVGPSQGRSPSYAS
# Tests used:
# [1] = test system: CDAHFD NASH mouse model; assay: In vivo study using CDAHFD mice (NASH model); design: species or system C57BL/6J mice; conditions: positive control 3 mg/kg p.o. for 10 weeks
# Description: C57BL/6J mice were fed normal chow diet (n = 5) or choline-deficient, L-amino acid-defined, high-fat diet (CDAHFD) for 4 weeks to induce NASH (n = 8–10/group). […] (a) Relative FAP activity was assessed by FRET-quench and serum FGF21 level at week 14. […] (c) Steatosis scores ranged from 0 to 3 (normal = 0, minimal = 1, moderate = 2, marked = 3) were determined. Hepatic steatosis and fibrosis (Picrosirius red stain) were analyzed in a blinded manner or by digital image analyzer. (d–e) Histological evaluations of liver tissue were performed in each group. Paraffin-embedded liver sections were stained with H&E (d) and Sirius red (e). Representative photographs of each group were presented. Images were obtained at 100x (Scale bar = 50 µm).
# Male C57BL/6J mice (5 weeks of age) were fed with a CDAHFD consisting of 60% kcal fat and 0.1% methionine. […] For the CDAHFD model, compound treatments were started at the beginning of week 4 on the diet and continued until week 14. […] Liver tissue was then collected. All other measurements were done similarly as described above. Staining was performed using H&E and Picrosirius red as described previously. Areas of positive Sirius red were quantified by computer-based morphometric analysis.
# [2] = test system: diet-induced obese mice; design: method as in PMID 27689014; conditions: cited from earlier work
# [3] = test system: ob/ob mice; assay: Acute study using ob/ob mice: blood glucose and intact hFGF21; conditions: hFGF21 0.1 mg/kg i.p. alone
# Description: Blood was collected at the indicated time points. (a) Nonfasting blood glucose levels were measured at the indicated time points. […] (c) Plasma intact hFGF21 levels were measured using ELISA kit at 1, 3, 6, and 9 h. All data are the means ± S.D. *P < 0.05, **P < 0.01 and *** P < 0.001 vs. vehicle group.
# Blood was promptly collected by orbital bleeding that was allowed to clot, and supernatant was collected after centrifugation at 4 °C at 3000 rpm. Serum intact FGF21 concentrations were measured by intact hFGF21 ELISA (Alpco, Keewaydin Dr, Salem, NH, catalog no. 43-FGFHU-E01)[29].
# [4] = animals administered with Talabostat alone
molecule,measurement,setting,value
"O=C(O)c1cc(F)c2nc(N3[C@@H]4CC[C@H]3C[C@@H](OCc3c(-c5ccccc5OC(F)(F)F)noc3C3CC3)C4)sc2c1 [LJN, Tropifexor, reference compound]",all parameters of the CDAHFD study,[1],All parameters showed improvements
CC(C)[C@H](N)C(=O)N1CCC[C@H]1B(O)O [Talabostat],adiposity,[2]; [4],decreased
same,body weight,[2]; [4],decreased
same,food consumption,[2]; [4],decreased
same,endogenous intact FGF21 level,[2]; diet-induced obese mice,increased
same,insulin resistance / insulin sensitivity,[2]; diet-induced obese mice,improved insulin resistance; also recorded: improved insulin sensitivity
B1,decrease of blood glucose AUC,[3],about 20%
same,"nonfasting blood glucose level, maximum average reduction to","[3]; 3 h, starting from 340 mg/dL",230 mg/dL

# From PMC7718273 (Scientific Reports, 2020)
